Patent US10273278B2, “Epitope recognized by anti-interferon gamma autoantibodies in patients with disseminated mycobacterial infections and the application therefor” (priority 2015, dated 2019)

Assays:
THP1 cells = test: p-STAT1 in THP1 cells pre-incubated with sera of immunized rats and treated with IFNr; type: cell-based; details: 50% sera
WKY/NcrlNarl rats = test: Immunization of rats with Noc2 or IFNr peptide conjugated with OVA; type: in vivo, rat; details: 0.25 mg peptide-OVA, booster every two weeks
Procedure: The inventor immunized WKY/NcrlNarl rats with 0.25 mg Noc2 or IFNr[…] peptide (Noc2: […] (SEQ NO: 31); IFNr: […] (SEQ NO: 32)) conjugated with ovalbumin (OVA) and gave a booster dose every two weeks after the initial injection (day 0). After 70 days, the inventor checked the antibody production level by dot blot or ELISA at each injection. All rats were sacrificed ten days after the tenth injection (day 136) and whole blood was collected. After collection of the whole blood, the blood was allowed to clot by leaving it undisturbed at room temperature 15 minutes. Clots were removed by centrifuging at 1500 g for 10 minutes in a refrigerated centrifuge. Sera were aliquoted and stored at −20° C. for further use.
Blood sera from pre-immunized rats (n=6), Noc2 peptide-immunized rats (n=4) and Peptide 6-immunized rats (n=2) were mapped to control peptide, Peptide 6 and Noc2 peptide from Aspergillus terreus or Aspergillus fumigatus. This is represented as the mean optical density (OD) at 405 nm.

anti-IFNr AutoAbs [1] = test: Epitope mapping ELISA of synthetic peptides with blood plasma; type: binding, human; details: for recognition of synthetic peptide by blood plasma: plasma from anti-IFNr AutoAbs patients (group-1), 1:100, OD 405 nm
Procedure: Clear polystyrene 96-well flat bottom plates (Nunc) were coated with 100 μL of peptide solution (5 μg/mL) with b-carbonate buffer (pH 9.6) at 4° C. overnight. After blocking the remaining binding sites with 5% human normal serum albumin (Aventis) in PBS, the plates were incubated at 37° C. for 1 hour. Afterward, the plates were washed 3 times with 0.5% Tween 20 in PBS.
Blood plasma samples were added at a 1:100 dilution, in PBS containing 5% human normal serum albumin. Following incubation at room temperature for 2 hours and being washed 3 times, goat anti-human IgG Fcr fragment specific conjugated with alkaline phosphate (Jackson ImmunoResearch Laboratories), was added at a 1:5000 dilution, and the plates were kept for 1 hour at room temperature. Finally, after being washed 5 times, 100 μL of p-Nitrophenyl Phosphate (pNPP) was added and the reaction was read at 405 nm by a VICTOR X3 Multilabel Plate Reader (PerkinElmer) after 30 minutes of incubation at 37° C.

anti-IFNr AutoAbs [2] = test: Competition ELISA against coated peptide 6; type: binding, human; details: patient plasma pre-incubated with 5-30 μg/mL competitor peptide
Procedure: To evaluate the specificity of the reaction, a competition ELISA experiment was performed. Each plasma sample (1:100 dilutions) was pre-incubated with different concentrations (5-30 μg/mL) of the competition peptides overnight at 4° C. Subsequently, all plasma and different concentrations competition peptides mixture samples were examined following the epitope mapping protocol. Peptide 6 was coated with b-carbonate buffer (pH 9.6) at 4° C. overnight. After blocking at 37° C. for 1 hour, all pre-incubated plasma and different concentrations competition peptides mixture samples were added in duplicate. Following 2 hours of room temperature incubation, goat anti-human IgG Fcr fragment specific conjugated with alkaline phosphate, was added. Finally, 100 μL of pNPP was added and the reaction was read at 405 nm by a VICTOR X3 Multilabel Plate Reader (PerkinElmer) after 30 minutes of incubation at 37° C.

p-STAT1 in whole blood = p-STAT1 in whole blood ex vivo; type: cell-based, human; details: for p-STAT1 signaling restored / up-regulated: IFNr AutoAbs patients' whole blood; for p-STAT1 signal: controls' whole blood
Excerpt: Representative histograms (FIG. 4f(1)-FIG. 4f(2)) and MFI (median fluorescence intensity) (FIG. 4g) are shown.

IL-12p40 in PBMCs = type: cell-based, human
p-STAT1 in PBMCs = test: p-STAT1 intracellular stain in PBMCs (CD14+ gated); type: cell-based, human; details: for p-STAT1 signaling restored / up-regulated: IFNr AutoAbs patients' PBMCs pre-incubated with 10% autologous blood plasma; for phosphorylation of STAT1: controls' PBMCs pre-incubated with 20% blood plasma with anti-IFNr AutoAbs from patients; for p-STAT1 signaling: controls' PBMCs, 20% control blood plasma
Procedure: A total of 10^6 PBMCs in 200 μL RPMI-1640 with 10% FBS and 1% penicillin/streptomycin was used. […] After 30 minutes of stimulation in a 37° C. incubator, monocytes were identified by FITC-CD14 (BD Pharmingen) surface staining. Fixed by adding 250 μL of FASC lysing solution (BD Pharmingen) and incubated at room temperature for 15 minutes in the dark, followed by two washes with PBS. To permeabilize the cells, 500 μl of ice-cold absolute methanol was added to each tube and incubated for 15 minutes on ice in the dark, followed by two washes with PBS. Next, PE-phospho-STAT1 (pY701) antibody (BD Pharmingen) was added, followed by 30 minutes incubation on ice in the dark. Again, cells were washed with 2 mL of PBS before resuspension in the 500 μL of PBS. Data were collected with a FACSVerse flow cytometer (BD Biosciences) and analyzed using FACSuite software (BD Biosciences).
Representative histograms (FIG. 2c(1)-FIG. 2c(2)) and MFI (median fluorescence intensity) (FIG. 2d) are shown.
After being gated on the CD14^+, p-STAT-1 levels were determined by flow cytometry with the p-STAT-1 monoclonal antibody. Representative histograms (FIG. 4a(1)-FIG. 4a(2)) and MFI (median fluorescence intensity) (FIG. 4b) are shown.

[3] = system: HLA-DR expression in PBMCs; test: HLA-DR expression in PBMCs (CD14+ gated); type: cell-based, human; details: IFNr AutoAbs patients' PBMCs pre-incubated with 10% autologous plasma
Procedure: A total of 10^6 PBMCs in 200 μL RPMI-1640 with 10% FBS and 1% penicillin/streptomycin was used. Cells were then stimulated with 500 IU IFNr, IFNr_1-131 or EE-IFNr⋅ in 160 μL RPMI-1640 pre-incubated with 40 μL of normal blood plasma or patient blood plasma for 10 min at room temperature. After 24 hours of stimulation in a 37° C. incubator, monocytes were identified by FITC-CD14 (BD Pharmingen) surface staining. Next, PE-HLA-DR antibody (BD Pharmingen) was added followed by 30 minutes of incubation on ice in the dark. Cells were again washed with 2 ml of PBS before resuspension in 500 μl of PBS. Data were collected with a FACSVerse flow cytometer (BD Biosciences) and analyzed using FACSuite software (BD Biosciences).
After being gated on the CD14^+, HLA-DR expression levels were determined by flow cytometry with the HLA-DR monoclonal antibody. Representative histograms (FIG. 4d(1)-FIG. 4d(2)) and MFI (median fluorescence intensity) (FIG. 4e) are shown.

anti-IFNr AutoAbs [4] = test: Immunoblotting (Western blot / dot blot) with patient or control plasma; type: binding, human; details: for recognition by anti-IFNr AutoAbs in Western blot and dot blot: plasma from anti-IFNr AutoAbs patients; for binding of plasma from healthy controls in Western blot: plasma from healthy donors
Procedure: Recombinant IFNr[…] (R&D Systems) and different truncated forms of recombinant IFNr[…] were subjected to SDS-PAGE using a 10% gel under reducing conditions at 120 V for 2 hours. The proteins were transferred to a PVDF membrane (Invitrogen Life Technologies) at 250 mA for 2 hours. The membrane was blocked in 5% human normal serum albumin (Aventis) in TBS with 0.1% Tween 20 overnight at 4° C. The membrane was incubated with a 1/100 dilution of patient or control blood plasma for 3 hours at room temperature. After being washed three times, the membrane was incubated in a 1/10,000 dilution of mouse anti-human IgG conjugated with horseradish peroxidase (Jackson ImmunoResearch Laboratories) for 1 hour at room temperature. After being washed three times, the membrane was developed with ECL (Merck Millipore).
Plasma from 3 healthy donors had no response to either IFNr1-131 or EE-IFNr.

anti-IFNr AutoAbs [5] = test: Protein mapping ELISA of recombinant IFNr proteins with blood plasma; type: binding, human; details: for recognition of recombinant IFNr protein by blood plasma (ELISA): plasma from group-1 patients
anti-IFNr AutoAbs [6] = test: Detection and titration of IFNr neutralizing autoantibodies (patient plasma, IFNr ELISA); type: binding, human; details: 200 pg/mL IFNr incubated with serially diluted patient plasma
Procedure: Blood plasma from patients and donors was serially diluted (10^−1 to 10^−6) and incubated with recombinant human IFNr at a final concentration of 200 pg/mL for 1 hour at 37° C. The IFNr level was measured with a human IFNr ELISA kit from BD Biosciences according to the manufacturer's recommendations. All experiments were performed in duplicate.

## CTPKTGKRKRSEQ
THP1 cells
  p-STAT1 signaling after recombinant IFNr in presence of sera of immunized rats: decreased up-regulation of p-STAT1 signaling
WKY/NcrlNarl rats
  antibodies developed after immunization: developed anti-Noc2 antibodies that cross-reacted with human IFNr

## peptide 6: 30-mer synthetic peptide of human IFNr, P114-143 (IQVMAELSPAAKTGKRKRSQMLFRGRRASQ; UniProt P01579 137-166, looked up, fragment)
anti-IFNr AutoAbs [1]
  recognition of synthetic peptide by blood plasma: recognized in the blood plasma isolated from the 12 patients in group-1
anti-IFNr AutoAbs [1]; plasma from healthy donors with non-neutralizing IFNr AutoAbs
  recognition of synthetic peptide by non-neutralizing AutoAbs: did not recognize
anti-IFNr AutoAbs [2]
  competition for AutoAbs binding to coated peptide 6: competition for the binding with coated peptide 6 in a dose dependent manner

## recombinant IFNr: Recombinant human IFNr (R&D Systems), commercial wild type [reference compound]
p-STAT1 in whole blood
  p-STAT1 signaling restored / up-regulated: up-regulated p-STAT1 signaling was not found
  p-STAT1 signal: up-regulated
IL-12p40 in PBMCs
  IL-12p40 expression: elevation of IL-12p40 expression couldn't be observed
p-STAT1 in PBMCs
  p-STAT1 signaling restored / up-regulated: up-regulated p-STAT1 signaling cannot be observed
  phosphorylation of STAT1: not
  p-STAT1 signaling: Up-regulation of the p-STAT1 signaling was observed
[3]
  HLA-DR expression levels restored / up-regulated: up-regulated HLA-DR expression levels were not observed

## IFNr_1-144: full-length recombinant IFNr expressed in Schneider 2 cells [reference compound]
anti-IFNr AutoAbs [4]
  recognition by anti-IFNr AutoAbs in Western blot and dot blot: recognized by anti-IFNr AutoAbs
anti-IFNr AutoAbs [5]
  recognition of recombinant IFNr protein by blood plasma (ELISA): recognized by blood plasma isolated from the group-1 patients

## KKDVTPKTGKRKRSEQQKDE (KKDVPPKTGKRKRSEQQKDE; listed as Aspergillus terreus) [Aspergillus Noc2 peptide]
anti-IFNr AutoAbs [1]
  recognition of synthetic peptide by blood plasma: recognized by blood plasma isolated from patients with anti-IFNr AutoAbs
anti-IFNr AutoAbs [1]; plasma from mycobacteria infected patients without AutoAbs / healthy controls
  binding of synthetic peptide by blood plasma: did not react
anti-IFNr AutoAbs [2]
  competition for AutoAbs binding to coated peptide 6: compete for IFNr AutoAbs binding with peptide 6 in a dose dependent manner

B1: mIFNr: murine IFNr (protein, UniProt P01580 23-155, looked up)
Interferon gamma: HGTVIESLESLNNYFNSSGIDVEEKSLFLDIWRNWQKDGDMKILQSQIISFYLRLFEVLKDNQAISNNISVIESHLITTFFSNSKAKKDAFMSIAKFEVNNPQVQRQAFNELIRVVHQLLPESSLRKRKRSRC
anti-IFNr AutoAbs [6]
  blocking of IFNr detection by plasma from patients with AutoAbs (plasma dilution): no blocking activity
anti-IFNr AutoAbs [6]; listed as murine IFNr
  blocking of IFNr detection by plasma from patients with AutoAbs (plasma dilution): did not show blocking activity

B2: IFNr_1-131: truncated recombinant human IFNr, deletion clone a.a. 1-131, expressed in Schneider 2 cells (protein)
chain: QDPYVKEAENLKKYFNAGHSDVADNGTLFLGILKNWKEESDRKIMQSQIVSFYFKLFKNFKDDQSIQKSVETIKEDMNVKFFNSNKKKRDDFEKLTNYSVTDLNVQRKAIHELIQVMAELSPAAKTGKRKR
modifications: left off: small tags and cut ends
notes: truncated recombinant human IFNr, deletion clone a.a; 1-131, expressed in Schneider 2 cells
p-STAT1 in whole blood
  p-STAT1 signaling restored / up-regulated: up-regulated p-STAT1 signaling was not found
  p-STAT1 signal: up-regulated
anti-IFNr AutoAbs [4]
  recognition by anti-IFNr AutoAbs in Western blot and dot blot: recognized by anti-IFNr AutoAbs
  binding of plasma from healthy controls in Western blot: no response
anti-IFNr AutoAbs [4]; listed as WT IFNr_1-131
  binding of plasma from healthy controls in Western blot: could not bind
IL-12p40 in PBMCs
  IL-12p40 expression: elevation of IL-12p40 expression couldn't be observed
anti-IFNr AutoAbs [5]; patients' blood plasma, OD 405 nm
  affinity of anti-IFNr AutoAbs by ELISA: bound to IFNr_1-131 in a dose dependent manner
anti-IFNr AutoAbs [5]
  recognition of recombinant IFNr protein by blood plasma (ELISA): recognized by blood plasma isolated from the group-1 patients
p-STAT1 in PBMCs
  p-STAT1 signaling restored / up-regulated: up-regulated p-STAT1 signaling cannot be observed
  phosphorylation of STAT1: not
  p-STAT1 signaling: Up-regulation of the p-STAT1 signaling was observed
[3]
  HLA-DR expression levels restored / up-regulated: up-regulated HLA-DR expression levels were not observed
